Measurements taken from patent publication US4175081A, “5-Substituted thiadiazole ureas” (priority 1977, dated 1979).

Legend:
Crabgrass (CG) [1] = assay: Post-emergence herbicide test; assay type: in vivo, Digitaria sanquinalis; conditions: Digitaria sanguinalis, post-emergence, 336 h, two weeks after treatment; for pest or weed control at 4483.4 g/ha: 4 lb/acre; for pest or weed control: 2 lb/acre
Experimental: (§1) Crabgrass (CG)--Digitaria sanquinalis
(§2) All crop and weed species were planted individually in 3' plastic pots containing potting soil. Four seeds each of corn, cotton, and snapbeans were seeded to a depth equal to the diameter of the seed. All other species were surface seeded and sprinkled with screened soil in an amount sufficient to cover the seed. Immediately after planting, all pots were watered by sub-irrigation in greenhouse trays. Pots for the pre-emergence phase were seeded one day before treatment.
(§3) Planting dates for the post-emergence phase were varied so that all seedlings would reach the desired stage of development simultaneously. The proper stage of seedling development for treatment in the post-emergence phase is as follows:
(§4) Spray hood constants required to deliver the above volume are as follows:
(§5) Formulations for spray applications were prepared in 50 ml volumes with the following three components: […]
(§6) Spray applications were made in a hood containing a removable belt and fixed spray nozzle. For passage through the spray hood, one pot of each specie (pre-emergence phase) was placed on the rear half of the flat. Treatments were removed to the greenhouse after spraying. Watering during the observation period was done only by sub-irrigation.
(§7) Two weeks after treatment, pre- and post-emergence injury or control was visually rated, and the results were as shown in the following tables. Pre-emergence data are provided in TABLE III and post-emergence data are provided in TABLE IV, for compounds having the formula illustrated in TABLE I. Correspondingly, pre-emergence and post-emergence data, respectively, are set forth in TABLES V AND VI, for compounds having the formula illustrated in TABLE II.

Barnyard grass (BG) [2] = assay: Post-emergence herbicide test; assay type: in vivo; conditions: Echinochloa crus-galli, 336 h, two weeks after treatment; for pest or weed control at 4483.4 g/ha: 4 lb/acre
Experimental: (§8) Barnyard grass (BG)--Echinochloa crus-galli
as §2, §3
(§9) Compounds were tested at rates of application equivalent to 8 lbs. of actual compound per acre in a spray volume of 38 gallons per acre. Spray hood constants required to deliver the above volume are as follows:
(§10) Formulations for spray applications were prepared in 50 ml volumes with the following three components:
(§11) Formulations for the 4 lbs/acre rate were prepared by adjusting the amount of active ingredient accordingly.
as §6, §7

Bean (BN) [3] = assay: Post-emergence herbicide test; assay type: in vivo, Phaseolus vulgaris var. Black Valentine; conditions: Phaseolus vulgaris, post-emergence, 336 h, two weeks after treatment; for pest or weed control at 4483.4 g/ha: 4 lb/acre; for pest or weed control at 2241.7 g/ha: 2 lb/acre
Experimental: (§12) Bean (BN)--Phaseolus vulgaris var. Black Valentine
as §2, §3
Beans: primary leaves expanded, growing point at primary leaf nodes.
as §4, §10, §11, §6, §7

Turnip (TP) [4] = assay: Post-emergence herbicide test; assay type: in vivo, Brassica sp.; conditions: Brassica rapa, post-emergence, 336 h, two weeks after treatment; for pest or weed control at 2241.7 g/ha: 2 lb/acre; for pest or weed control at 4483.4 g/ha: 4 lb/acre
Experimental: (§13) Turnip (TP)--Brassica sp.
as §2, §3
(§14) Pigweed and turnips: 1 or 2 true leaves above visible cotyledons.
as §4, §5, §6, §7

Amaranth pigweed (PW) [5] = assay: Post-emergence herbicide test; assay type: in vivo, Amaranthus retroflexus; conditions: 336 h, two weeks after treatment; for pest or weed control at 2241.7 g/ha: 2 lb/acre; for pest or weed control at 4483.4 g/ha: 4 lb/acre
Experimental: Amaranth pigweed (PW)--Amaranthus retroflexus
as §2, §3, §14, §9, §10, §11, §6, §7

Corn (CN) [6] = assay: Post-emergence herbicide test; assay type: in vivo; conditions: Zea mays, 336 h, two weeks after treatment; for pest or weed control at 4483.4 g/ha: 4 lb/acre; for pest or weed control: 2 lb/acre
Experimental: as §2, §3, §9, §10, §11, §6, §7

Cotton (CT) [7] = assay: Post-emergence herbicide test; assay type: in vivo, Gossypium hirsutum var. DPL smooth leaf; conditions: Gossypium hirsutum, post-emergence, 336 h, two weeks after treatment; for pest or weed control at 4483.4 g/ha: 4 lb/acre; for pest or weed control at 2241.7 g/ha: 2 lb/acre
Experimental: (§15) Cotton (CT)--Gossypium hirsutum var. DPL smooth leaf
as §2, §3
Cotton: first true leaf 1' in length; expanded cotyledons.
as §4, §10, §11, §6, §7

Johnson grass (JG) [8] = assay: Post-emergence herbicide test; assay type: in vivo, Sorgum helepense; conditions: Sorghum halepense, 336 h, two weeks after treatment; for pest or weed control at 4483.4 g/ha: 4 lb/acre
Experimental: (§16) Johnson grass (JG)--Sorgum helepense
as §2, §3, §9, §10, §11, §6, §7

Bean (BN) [9] = assay: Pre-emergence herbicide test; assay type: in vivo, Phaseolus vulgaris var. Black Valentine; conditions: Phaseolus vulgaris, 336 h, two weeks after treatment
Experimental: as §12, §2, §9, §10, §11, §6, §7

Crabgrass (CG) [10] = assay: Pre-emergence herbicide test; assay type: in vivo, Digitaria sanquinalis; conditions: Digitaria sanguinalis, pre-emergence, 336 h, two weeks after treatment; for pest or weed control at 4483.4 g/ha: 4 lb/acre
Experimental: as §1, §2, §4, §5, §6, §7

Johnson grass (JG) [11] = assay: Pre-emergence herbicide test; assay type: in vivo, Sorgum helepense; conditions: Sorghum halepense, 336 h, two weeks after treatment; for pest or weed control at 4483.4 g/ha: 4 lb/acre
Experimental: as §16, §2, §9, §10, §11, §6, §7

Barnyard grass (BG) [12] = assay: Pre-emergence herbicide test; assay type: in vivo; conditions: Echinochloa crus-galli, 336 h, two weeks after treatment; for pest or weed control at 4483.4 g/ha: 4 lb/acre
Experimental: as §8, §2, §9, §10, §11, §6, §7

Cotton (CT) [13] = assay: Pre-emergence herbicide test; assay type: in vivo, Gossypium hirsutum var. DPL smooth leaf; conditions: Gossypium hirsutum, 336 h, two weeks after treatment; for pest or weed control at 4483.4 g/ha: 4 lb/acre
Experimental: as §15, §2, §9, §10, §11, §6, §7

Corn (CN) [14] = assay: Pre-emergence herbicide test; assay type: in vivo; conditions: Zea mays, 336 h, two weeks after treatment; for pest or weed control at 4483.4 g/ha: 4 lb/acre
Experimental: as §2, §9, §10, §11, §6, §7

Turnip (TP) [15] = assay: Pre-emergence herbicide test; assay type: in vivo, Brassica sp.; conditions: Brassica rapa, pre-emergence, 336 h, two weeks after treatment; for pest or weed control at 4483.4 g/ha: 4 lb/acre
Experimental: as §13, §2, §4, §5, §6, §7

Amaranth pigweed (PW) [16] = assay: Pre-emergence herbicide test; assay type: in vivo, Amaranthus retroflexus; conditions: 336 h, 4 lb/acre, two weeks after treatment
Experimental: as §2, §9, §10, §11, §6, §7

Row | SMILES | pest or weed control at 4483.4 g/ha (Crabgrass (CG) [1]) | pest or weed control at 4483.4 g/ha (Barnyard grass (BG) [2]) | pest or weed control at 4483.4 g/ha (Bean (BN) [3]) | pest or weed control at 2241.7 g/ha (Turnip (TP) [4]) | pest or weed control at 4483.4 g/ha (Turnip (TP) [4]) | pest or weed control at 2241.7 g/ha (Amaranth pigweed (PW) [5]) | pest or weed control at 4483.4 g/ha (Amaranth pigweed (PW) [5]) | pest or weed control at 4483.4 g/ha (Corn (CN) [6]) | pest or weed control at 4483.4 g/ha (Cotton (CT) [7]) | pest or weed control at 4483.4 g/ha (Johnson grass (JG) [8]) | also measured
1 | CCC(C)=CCSc1nnc(NC(=O)NC)s1 [Example 50] | 50% | 20% | 100% | 60% | 80% | 90% | 90% | 30% | 80% | 30% | 
2 | CNC(=O)Nc1nnc(SCCC(C)C)s1 [Example 51] | 60% | 70% | 100% | 80% | 90% | 90% | 90% | 50% | 100% | 40% | 
3 | CNC(=O)Nc1nnc(SCCC#N)s1 [Example 52] | 70% | 20% | 100% |  | 80% |  | 80% | 100% | 100% | 20% | 
4 | CNC(=O)Nc1nnc(SCCc2ccccc2)s1 [Example 53] | 60% | 20% | 100% | 70% | 90% | 90% | 90% | 100% | 100% | 30% | 
5 | CNC(=O)Nc1nnc(SCC(C)=O)s1 [Example 54] | 50% | 30% | 100% | 60% | 80% | 60% | 90% | 30% | 90% | 30% | 
6 | CNC(=O)Nc1nnc(SCc2ccc([N+](=O)[O-])cc2)s1 [Example 55] | 40% | 20% | 100% | 60% | 90% | 90% | 90% | 20% | 50% | 30% | 
7 | CNC(=O)Nc1nnc(SCC(=O)OC)s1 [Example 56] | 30% | 20% | 50% |  | 70% |  | 60% | 30% | 60% | 20% | 
8 | CNC(=O)Nc1nnc(C(F)(F)Cl)s1 [Example 57] |  |  |  |  |  |  |  |  |  |  | pest or weed control at 8966.8 g/ha (Crabgrass (CG) [1]; 8 lb/acre): 60%; pest or weed control at 8966.8 g/ha (Barnyard grass (BG) [2]; 8 lb/acre): 40%; pest or weed control at 8966.8 g/ha (Bean (BN) [3]; 8 lb/acre): 100%; pest or weed control at 8966.8 g/ha (Turnip (TP) [4]; 8 lb/acre): 100%; pest or weed control at 8966.8 g/ha (Amaranth pigweed (PW) [5]; 8 lb/acre): 90%; pest or weed control at 8966.8 g/ha (Corn (CN) [6]; 8 lb/acre): 40%; pest or weed control at 8966.8 g/ha (Cotton (CT) [7]; 8 lb/acre): 90%; pest or weed control at 8966.8 g/ha (Johnson grass (JG) [8]; 8 lb/acre): 40%
9 | CNC(=O)Nc1nnc(SCCCCl)s1 [Example 61] | 90% | 70% | 100% | 100% | 80% | 90% | 90% | 30% | 100% | 60% | pest or weed control (Crabgrass (CG) [1]): 20%; pest or weed control at 2241.7 g/ha (Barnyard grass (BG) [2]; 2 lb/acre): 40%; pest or weed control at 2241.7 g/ha (Bean (BN) [3]): 100%; pest or weed control (Corn (CN) [6]): 40%; pest or weed control at 2241.7 g/ha (Cotton (CT) [7]): 100%; pest or weed control (Johnson grass (JG) [8]; 2 lb/acre): 20%
10 | CCS(=O)(=O)c1nnc(NC(=O)NC)s1 [Example 81] | 100% | 80% | 100% | 100% | 100% |  |  | 50% | 100% | 100% | pest or weed control (Crabgrass (CG) [1]): 100%; pest or weed control at 2241.7 g/ha (Bean (BN) [9]; 2 lb/acre): 60%; pest or weed control at 4483.4 g/ha (Bean (BN) [9]; 4 lb/acre): 60%; pest or weed control (Crabgrass (CG) [10]; 2 lb/acre): 90%; pest or weed control at 4483.4 g/ha (Crabgrass (CG) [10]): 90%; pest or weed control at 2241.7 g/ha (Bean (BN) [3]): 100%; pest or weed control at 2241.7 g/ha (Johnson grass (JG) [11]; 2 lb/acre): 40%; pest or weed control at 4483.4 g/ha (Johnson grass (JG) [11]): 40%; pest or weed control (Corn (CN) [6]): 100%; pest or weed control at 2241.7 g/ha (Barnyard grass (BG) [12]; 2 lb/acre): 60%; pest or weed control at 4483.4 g/ha (Barnyard grass (BG) [12]): 60%; pest or weed control at 2241.7 g/ha (Cotton (CT) [7]): 90%; pest or weed control at 2241.7 g/ha (Cotton (CT) [13]; 2 lb/acre): 100%; pest or weed control at 4483.4 g/ha (Cotton (CT) [13]): 100%; pest or weed control at 2241.7 g/ha (Corn (CN) [14]; 2 lb/acre): 0%; pest or weed control at 4483.4 g/ha (Corn (CN) [14]): 0%; pest or weed control at 2241.7 g/ha (Turnip (TP) [15]; 2 lb/acre): 80%; pest or weed control at 4483.4 g/ha (Turnip (TP) [15]): 80%
11 | CCCC(C)c1nnc(NC(=O)NC)s1 (stereo not shown) [Example 83] | 10% |  | 40% |  | 90% |  |  |  | 10% |  | pest or weed control at 4483.4 g/ha (Crabgrass (CG) [10]): 90%; pest or weed control at 4483.4 g/ha (Johnson grass (JG) [11]): 60%; pest or weed control at 4483.4 g/ha (Barnyard grass (BG) [12]): 50%; pest or weed control at 4483.4 g/ha (Cotton (CT) [13]): 10%; pest or weed control at 4483.4 g/ha (Corn (CN) [14]): 10%; pest or weed control at 4483.4 g/ha (Turnip (TP) [15]): 10%; pest or weed control at 4483.4 g/ha (Amaranth pigweed (PW) [16]): 80%
